Experimental data taken from patent US20040014797A1, “Pharmaceutical composition comprising metformin and a 5-phenoxyalkyl-2,4-thiazolidinedione-type derivative” (priority 2000, published 2004).

System: nOSTZ rat
Assay: Antidiabetic effect of the metformin and CRE16336 combination on the nOSTZ rat (glycaemia, insulinaemia, lacticaemia after 4 days of oral treatment)
Type: in vivo
Details: for Glucose / Insulin / Lactate: 4 days of oral treatment, blood from the tail 2 h after last administration, metformin 25 mg/kg and/or CRE16336 12.5 mg/kg; for Effect on the hyperglycaemia in the nOSTZ rats (in words): 4 days oral, metformin 25 mg/kg, CRE16336 12.5 mg/kg, alone or combined
Description: The antidiabetic effect of the metformin and CRE16336 combination was studied on the nOSTZ rat, an experimental model of non-insulin-dependent diabetes. This model is produced by intravenous injection of Streptozotocin (STZ) 100 mg/kg, on the day of birth. 38 male nOSTZ rats were used after selection based on the hyperglycaemia value after fasting for 2 h in order to homogenize the groups. […] a group treated with metformin at 25 mg/kg a group treated with CRE16336 at 12.5 mg/kg a group treated with metformin 25 mg/kg and CRE16336 12.5 mg/kg 5 male Wistar rats were incorporated into this study in order to evaluate the degree of hyperglycaemia in the diabetic animals. The products were administered orally in the morning between 8 am and 9 am, for 4 days.

Structure (SMILES) | Glucose [mg/dL] | Insulin [μU/ml] | Lactate [mg/dL] | Effect on the hyperglycaemia in the nOSTZ rats (in words)
CN(C)C(=N)NC(=N)N [Metformin, 1,1-dimethylbiguanide] | 160 ± 5 | 34.1 ± 3.7 | 15.4 ± 1.4 | does not modify the hyperglycaemia
N#Cc1ccc(OCCC2SC(=O)NC2=O)cc1 (centres unmarked) [CRE16336, 5-[2-(4-cyanophenoxy)ethyl]thiazolidine-2,4-dione] | 156 ± 6 | 45.2 ± 5.5 | 13.2 ± 0.7 | does not modify the hyperglycaemia
